{"source": "patent US9238603B1", "about": "“Batch process for the preparation of cis-2,2,4,4-tetramethylcyclobutane-1,3-diol” (EASTMAN CHEMICAL COMPANY, priority 2014, dated 2016)", "experiment": "cis/trans solubility ratio of 2,2,4,4-tetramethylcyclobutane-1,3-diol in a solvent", "type": "physicochemical", "experimental": "The definition of cis/trans 2,2,4,4-tetramethylcyclobutane-1,3-diol solubility ratio is also known to one of ordinary skill in the art; in one embodiment, the cis/trans 2,2,4,4-tetramethylcyclobutane-1,3-diol solubility ratio can be defined as the ratio of the cis isomer solubility limit divided by the trans isomer solubility limit at a given temperature for a given solvent or solvents. For example, the cis/trans solubility ratio in water at 80° C. is about 1.0. For MIBC, the cis/trans solubility ratio at 80° C. is about 0.74."}
{"compound": "CC1(C)C(O)C(C)(C)C1O", "note": "(centres unmarked) [2,2,4,4-tetramethylcyclobutane-1,3-diol]", "values": [{"measurement": "cis/trans solubility ratio (cis isomer solubility limit divided by trans isomer solubility limit)", "setting": "in MIBC at 80° C.", "value": "about 0.74"}, {"measurement": "cis/trans solubility ratio (cis isomer solubility limit divided by trans isomer solubility limit)", "setting": "in water at 80° C.", "value": "about 1.0"}]}
